Data as given in ChEMBL document CHEMBL3870314, “Design, synthesis, anticancer, antimicrobial activities and molecular docking studies of theophylline containing acetylenes and theophylline containing 1,2,3-triazoles with variant nucleoside derivatives” (Eur J Med Chem, 2016).
≈ marks a conversion by molar mass, not a printed value.

Key:
Pseudomonas aeruginosa = experiment: Antimicrobial activity against Pseudomonas aeruginosa ATCC 10145 incubated overnight by two-fold serial dilution method; format: functional
Bacillus cereus = experiment: Antimicrobial activity against Bacillus cereus ATCC 10876 incubated overnight by two-fold serial dilution method; format: functional
[1] = Cytotoxicity against human A375 cells after 48 hrs by MTT assay; format: functional, cell-based; conditions: A-375, 48 h
[2] = Cytotoxicity against human MCF7 cells after 48 hrs by MTT assay; format: functional, cell-based; conditions: MCF7, 48 h
Staphylococcus aureus = experiment: Antimicrobial activity against Staphylococcus aureus ATCC 25923 incubated overnight by two-fold serial dilution method; format: functional
[3] = Cytotoxicity against human A549 cells after 48 hrs by MTT assay; format: functional, cell-based; conditions: A549, 48 h
[4] = Cytotoxicity against human HT-29 cells after 48 hrs by MTT assay; format: functional, cell-based; conditions: HT-29, 48 h

SMILES | MIC (Pseudomonas aeruginosa) | MIC (Bacillus cereus) | IC50 [1] | IC50 [2] | MIC (Staphylococcus aureus) | IC50 [3] | IC50 [4]
C#CCn1cnc2c1c(=O)n(C)c(=O)n2C | 0.125 µg/mL (≈ 0.573 µM) | 0.125 µg/mL (≈ 0.573 µM) | 153 µM | 103 µM | 0.0625 µg/mL (≈ 0.286 µM) | 152 µM | 158 µM
Cn1c(=O)c2c(ncn2CC(=O)OCCCc2cn(CC3OC(n4ccc(=O)[nH]c4=O)C4OC(C)(C)OC34)nn2)n(C)c1=O (stereo unspecified) | 0.0312 µg/mL (≈ 0.0509 µM) | 0.0312 µg/mL (≈ 0.0509 µM) | 8.23 µM | 30.6 µM | 0.125 µg/mL (≈ 0.204 µM) | 14.3 µM | 12.4 µM
CCn1c(=O)ccn(C2OC(Cn3cc(COC(=O)CNC(=O)Cn4cnc5c4c(=O)n(C)c(=O)n5C)nn3)C(O)C2O)c1=O (stereo unspecified) | 0.0625 µg/mL (≈ 0.0991 µM) | 0.125 µg/mL (≈ 0.198 µM) | 5.81 µM | 2.1 µM | 0.0625 µg/mL (≈ 0.0991 µM) | 3.57 µM | 2.9 µM
Cn1c(=O)c2c(ncn2CCCc2cn(CC3OC(n4ccc(=O)[nH]c4=O)C4OC(C)(C)OC34)nn2)n(C)c1=O (stereo unspecified) | 0.0625 µg/mL (≈ 0.113 µM) | 0.0156 µg/mL (≈ 0.0281 µM) | 9.4 µM | 34.2 µM | 0.0625 µg/mL (≈ 0.113 µM) | 15.4 µM | 7.45 µM
CCn1c(=O)ccn(C2OC(Cn3cc(COC(=O)C(C)NC(=O)C(C)n4cnc5c4c(=O)n(C)c(=O)n5C)nn3)C(O)C2O)c1=O (stereo unspecified) | 0.0625 µg/mL (≈ 0.0949 µM) | 0.0312 µg/mL (≈ 0.0474 µM) | 52.3 µM | 3.8 µM | 0.0312 µg/mL (≈ 0.0474 µM) | 1.56 µM | 2.71 µM
Cn1c(=O)c2c(ncn2CC(=O)NCc2cn(CC3OC(n4ccc(=O)[nH]c4=O)C4OC(C)(C)OC34)nn2)n(C)c1=O (stereo unspecified) | 0.125 µg/mL (≈ 0.214 µM) | 0.125 µg/mL (≈ 0.214 µM) | 58.2 µM | 2.14 µM | 0.0312 µg/mL (≈ 0.0535 µM) | 53.9 µM | 58.2 µM
Cn1c(=O)c2c(ncn2Cc2cn(CC3OC(n4ccc(=O)[nH]c4=O)C4OC(C)(C)OC34)nn2)n(C)c1=O (stereo unspecified) | 0.0312 µg/mL (≈ 0.0592 µM) | 0.0312 µg/mL (≈ 0.0592 µM) | 54.2 µM | 10.4 µM | 0.5 µg/mL (≈ 0.948 µM) | 8.59 µM | 58.2 µM
Cn1c(=O)c2c(ncn2CC(=O)OCc2cn(CC3OC(n4ccc(=O)[nH]c4=O)C4OC(C)(C)OC34)nn2)n(C)c1=O (stereo unspecified) | 0.0625 µg/mL (≈ 0.107 µM) | 0.125 µg/mL (≈ 0.213 µM) | 56.2 µM | 23.6 µM | 0.0312 µg/mL (≈ 0.0534 µM) | 3.59 µM | 6.2 µM
CCn1c(=O)ccn(C2OC(Cn3cc(COC(=O)C(C)n4cnc5c4c(=O)n(C)c(=O)n5C)nn3)C(O)C2O)c1=O (stereo unspecified) | 0.0312 µg/mL (≈ 0.0532 µM) | 0.0625 µg/mL (≈ 0.106 µM) | 68.4 µM | 2.13 µM | 0.0156 µg/mL (≈ 0.0266 µM) | 2.89 µM | 62.8 µM
Cn1c(=O)c2c(ncn2CC(=O)NCC(=O)OCc2cn(CC3OC(n4ccc(=O)[nH]c4=O)C4OC(C)(C)OC34)nn2)n(C)c1=O (stereo unspecified) | 0.125 µg/mL (≈ 0.195 µM) | 0.0156 µg/mL (≈ 0.0243 µM) | 59.8 µM | 12.6 µM | 0.0312 µg/mL (≈ 0.0486 µM) | 5.67 µM | 59.3 µM
C#CCCCn1cnc2c1c(=O)n(C)c(=O)n2C | 0.125 µg/mL (≈ 0.508 µM) | 0.125 µg/mL (≈ 0.508 µM) | 156 µM | 34.2 µM | 0.0312 µg/mL (≈ 0.127 µM) | 55.4 µM | 160 µM
Cn1c(=O)c2c(ncn2CC(=O)OCCc2cn(CC3OC(n4ccc(=O)[nH]c4=O)C4OC(C)(C)OC34)nn2)n(C)c1=O (stereo unspecified) |  |  | 54.2 µM | 2.4 µM |  | 7.39 µM | 100 µM
CCn1c(=O)ccn(C2OC(Cn3cc(COC(=O)Cn4cnc5c4c(=O)n(C)c(=O)n5C)nn3)C(OC)C2OC)c1=O (stereo unspecified) |  |  | 62.8 µM | 2.67 µM |  | 56.8 µM | 58.8 µM
CCn1c(=O)ccn(C2OC(Cn3cc(COC(=O)Cn4cnc5c4c(=O)n(C)c(=O)n5C)nn3)C(O)C2O)c1=O (stereo unspecified) | 0.0625 µg/mL (≈ 0.109 µM) | 0.0625 µg/mL (≈ 0.109 µM) | 4.89 µM | 1.89 µM | 0.0625 µg/mL (≈ 0.109 µM) | 2.56 µM | 2.19 µM
C#CCCCOC(=O)Cn1cnc2c1c(=O)n(C)c(=O)n2C | 0.0625 µg/mL (≈ 0.205 µM) | 0.0625 µg/mL (≈ 0.205 µM) | 158 µM | 162 µM | 0.5 µg/mL (≈ 1.64 µM) | 56.8 µM | 36.6 µM
C#CCCOC(=O)Cn1cnc2c1c(=O)n(C)c(=O)n2C | 0.0625 µg/mL (≈ 0.215 µM) | 0.125 µg/mL (≈ 0.431 µM) | 159 µM | 56.3 µM | 0.0625 µg/mL (≈ 0.215 µM) | 104 µM | 152 µM
C#CCNC(=O)Cn1cnc2c1c(=O)n(C)c(=O)n2C | 0.0625 µg/mL (≈ 0.227 µM) | 0.0625 µg/mL (≈ 0.227 µM) | 28.2 µM | 157 µM | 0.0156 µg/mL (≈ 0.0567 µM) | 114 µM | 19.4 µM
C#CCOC(=O)Cn1cnc2c1c(=O)n(C)c(=O)n2C | 0.125 µg/mL (≈ 0.452 µM) | 0.125 µg/mL (≈ 0.452 µM) | 33.6 µM | 33.9 µM | 0.0312 µg/mL (≈ 0.113 µM) | 156 µM | 68.3 µM
CCn1c(=O)ccn(C2OC(Cn3cc(COC(=O)CNC(=O)Cn4cnc5c4c(=O)n(C)c(=O)n5C)nn3)C(OC)C2OC)c1=O (stereo unspecified) |  |  | 77.4 µM | 59.8 µM |  | 52 µM | 74.3 µM
O=C(O)c1cn(C2CC2)c2cc(N3CCNCC3)c(F)cc2c1=O [CIPROFLOXACIN] | 0.0625 µg/mL (≈ 0.189 µM) | 0.0156 µg/mL (≈ 0.0471 µM) |  |  | 0.0312 µg/mL (≈ 0.0943 µM) |  | 
COc1ccc(/C=C\c2cc(OC)c(OC)c(OC)c2)cc1O [COMBRETASTATIN A4] |  |  | 0.21 µM | 0.18 µM |  | 0.11 µM | 0.93 µM
